The test system of test [1] is Methylobacter capsulatus Y (NRRL B-11,201). Nature of the test: Oxidation of sec-alcohols to ketones by resting cell suspension. Type of test: cell-based. As to the method: (§1) The pH of the nutrient medium was adjusted to 7.0 by the addition of acid or base and 50 ml. samples of the nutrient medium were charged into a plurality of 300 ml. shaker flasks. The shaker flasks were inoculated with an inoculating loop of cells from an agar plate containing homogeneous colonies of the microorganisms on the plate (the purity of the isolates was confirmed by microscopic examination). The isolates had been maintained on methanol (0.4% V/V) agar plates or on agar plates under an atmosphere of methane and air having a 1:1 V/V gas ratio which had been transferred every two weeks. For growth on methanol, the medium was supplemented with 0.4% methanol. For growth on methane, the gaseous phase of the inoculated flasks was replaced with a gas mixture comprised on methane and air having a ratio of 1:1 on a V/V basis. The inoculated flasks were sealed air-tight and were incubated on a rotary shaker of orbital radius 2.5 cm. at 250 rpm and at 30° C. for two days until turbidity in the medium had developed. The cells were harvested by centrifugation at 10,000×g. at 4° C. for 30 minutes. The cell pellet was washed twice with a 0.05 M phosphate buffer at a pH of 7.0 (containing 0.02 M MgCl2). The washed cells were then suspended in a 0.05 M phosphate buffer at pH 7.0.
(§2) A 0.5 ml. sample of each washed cell suspension (2 mg. cells) was put into 10 ml. vials at 4° C. which were sealed with a rubber cap. The gaseous phase of the vials was removed with vacuum and then was replaced with a gas mixture of the substrate reactant (i.e., alkane or secondary alcohol) and oxygen at a 1:1 V/V ratio. (In the case of a liquid substrate, i.e., secondary alcohol, 10 μl of the substrate was put in the 10 ml. vials). […] Samples of product (1-3 μl) were withdrawn periodically with a microsyringe and the products were analyzed by gas chromatography (ionization flame detector column).
(§3) The procedure in Example 1 was repeated wherein a plurality of the methane-utilizing methylotrophic microorganisms were each grown aerobically in a nutrient medium containing methane as the alcohol dehydrogenase enzyme inducer and as the major carbon and energy source for growth. The cells were harvested and washed as described in Example 1. The resting microbial cells of the induced methane-grown methane-utilizing methylotrophic microorganisms were then contacted with C3 -C6 secondary alcohols in a buffered solution by the procedure of Example 1.
(§4) In this example, the procedure in Example 1 was repeated except that a plurality of methane-utilizing methylotrophic microorganisms were each aerobically grown in a methanol-containing nutrient medium instead of a methane-containing medium. The nutrients in the medium were the same as indicated in Example 1 except that 0.4% V/V methanol was used as the alcohol dehydrogenase inducer and major source of carbon and energy for growth. Following growth, the cells were harvested and washed as described in Example 1. The resting cells of the induced methanol-grown methylotrophic microorganisms were then contacted with secondary alcohols in a buffered solution by the procedure described in Example 1.

Test [2] deals with Methylococcus capsulatus, Texas (ATCC 19069). Described as above. Type of test: cell-based. The method, then: as §1, §2, §3, §4
Test [3] concerns Methylocystis parvus OBBP (NRRL B-11,198). The test is described as above. Type of test: cell-based. As to the method:
as §1, §2, §3, §4

In test [4] the test system is Methylomonas methanica S1 (NRRL B-11,199). The description is as above. Type of test: cell-based. The method, then:
as §1, §2, §3, §4

Test [5] deals with secondary alcohol dehydrogenase (SADH). Nature of the test: Activity of purified secondary alcohol dehydrogenase (inhibition, substrate specificity, Km). Type of test: biochemical, Pseudomonas sp. ATCC 21439. The following applies: for relative percent rate of oxidation: 2-butanol = 100%. As to the method: Secondary alcohol dehydrogenase (SADH) from an obligate methanol utilizer, Pseudomonas sp. ATCC 21439 was purified as follows. […] 0.05 M sodium phosphate buffer, pH 7.0 with 0.5 mM dithiothretol (buffer A) and were disrupted sonically (5×1 min.). The crude extract was separated by centrifugation. The crude extract was heat-treated at 50° C. in a water bath for 10 minutes. The resulting precipitate was removed by centrifugation. To the supernatant solution, 25 ml of protamine sulfate solution (2% solution in 0.1 M Tris base) was added dropwise with continuous stirring. After standing for 30 minutes, the extract was centrifuged. The supernatant solution was fractionated with solid ammonium sulfate. The material precipitating between 30 and 60% saturation was collected and was dialized overnight against buffer A. The The dialized material was applied to a DEAE-cellulose column (3 cm by 35 cm) that had been equilibrated with buffer A. The secondary alcohol dehydrogenase activity was eluted in the void volume. This DEAE-cellulose eluate was concentrated by ammonium sulfate fractionation. Material precipitating between 30 and 50% ammonium sulfate saturation was collected by centrifugation and dialyzed overnight against A. This fraction was further washed and filtered through an Amicon unit with XM 50 membrane. The concentrated fraction (6 ml) inside the Amicon unit was applied to an Affi-Gel Blue column (0.8 cm×18 cm) which had been equilibrated with buffer A for affinity chromatography. The column was washed overnight with buffer A (0.18 ml./min.) and then was eluted with buffer A containing 5 mM NAD. Each 1 ml. fraction was collected.
The purified secondary alcohol dehydrogenase enzyme (SADH) may be used directly for converting C3 -C6 secondary alcohols to the corresponding methyl ketones by the procedures described above; however, a source of NAD^+ must be added to the reaction medium. One can determine the NAD-linked secondary alcohol dehydrogenase activity with a fluorescence spectrophotometer (Perkin Elmer, Model MPF 44A) by following the formation of reduced NAD (Ex 340 nm, Em 460 nm). The assay system (3 ml.) will typically contain: sodium phosphate buffer pH 7.0, 150 μmol; NAD 1.0 μmol; a given amount of enzyme preparation; and 20 μmol secondary alcohol. The reaction is started by the addition of secondary alcohol. One unit of SADH enzyme activity represents the reduction of one nmole NAD per minute.
The effect of metal-chelating agents and thioreagents on the activity of the purified SADH enzyme were studied. […] The possibility of ethanol or n-propanol as an inhibitor was studied.

Test [6] deals with secondary alcohol dehydrogenase. Nature of the test: Activity of purified yeast-derived secondary alcohol dehydrogenase. Type of test: biochemical, Pichia sp. NRRL Y-11,328.
Test [7] deals with cell extracts of Pichia sp. NRRL Y-11,328. Nature of the test: NAD+-dependent oxidation of secondary alcohols by cell extracts of yeasts. Type of test: biochemical. The following applies: grown on methanol, gas chromatography.
Test [8] concerns Pseudomonas sp. ATCC 21439. Kind of test: Oxidation of sec-alcohols to ketones by resting cell suspension. The conditions noted are these: methanol-grown, obligate. Type of test: cell-based. The method, then: as §1, §2
(§5) The procedure in Example 1 was repeated except that a plurality of methanol-utilizing methylotrophic microorganisms were each aerobically grown in a methanol-containing nutrient medium instead of a methane-containing medium. The nutrients in the medium were the same as indicated in Example 1 except that 0.4% V/V methanol was used as the alcohol dehydrogenase inducer and as the major carbon and energy source for growth. The cells were harvested and washed as described in Example 1. The resting microbial cells of the induced methanol-grown methanol-utilizing methylotrophic microorganisms were then contacted with C3 -C6 secondary alcohols in a buffered solution by the procedure of Example 1.

In test [9] the test system is Pseudomonas MS ATCC 25262. Described as above. Type of test: cell-based. The conditions noted are these: methanol-grown, facultative. As to the method: as §1, §2, §5

Like-named read-outs stand apart in the source and are kept apart here.

Regarding `CCC(C)O` (stereo not shown) [2-Butanol, 2-butanol], the “Conversion Rates, sec-alcohol to methyl ketone” value (shortened to “Conversion Rates, sec-alcohol”) in test [1] (cells grown on methanol) was 1.5 μmoles/hr/mg protein; in [1] (resting cells grown on methane), 0.84 μmoles/hr/mg protein; in test [2] (cells grown on methanol) it was 0.70 μmoles/hr/mg protein; in test [2] (resting cells grown on methane), 0.60 μmoles/hr/mg protein; in test [3] (cells grown on methanol), 1.0 μmoles/hr/mg protein; in test [3] (resting cells grown on methane), 1.1 μmoles/hr/mg protein. Besides, the “Conversion Rates, sec-alcohol” value was 0.40 μmoles/hr/mg protein in test [4] (cells grown on methanol), 0.39 μmoles/hr/mg protein in test [4] (resting cells grown on methane), 4.7 μmoles/hr/mg protein in test [8] and 3.5 μmoles/hr/mg protein in [9]. Further, the “substrate specificity of purified SADH (in words)” value in test [5] is given as “highest”. Also, the “substrate specificity of purified yeast secondary alcohol dehydrogenase (in words)” value in test [6] is “catalyzed the oxidation”. Further, the “Conversion Rate, secondary alcohol to methylketone” value (shortened to “Conversion Rate, secondary alcohol”) in [7] was 6.2 μmoles/hr/mg Protein.
`CCCCC(C)O` (stereo not shown) [2-Hexanol, 2-hexanol]: the “Conversion Rates, sec-alcohol” value in [1] (cells grown on methanol) turned out to be 0.12 μmoles/hr/mg protein; in test [1] (resting cells grown on methane), 0.1 μmoles/hr/mg protein; in test [2] (cells grown on methanol), 1.3 μmoles/hr/mg protein; in test [2] (resting cells grown on methane), 1.0 μmoles/hr/mg protein; in test [3] (cells grown on methanol) it was 0.05 μmoles/hr/mg protein; in test [3] (resting cells grown on methane), 0.065 μmoles/hr/mg protein. Further, the “Conversion Rates, sec-alcohol” value amounted to 0.04 μmoles/hr/mg protein in [4] (cells grown on methanol), 0.01 μmoles/hr/mg protein in [4] (resting cells grown on methane), 0.03 μmoles/hr/mg protein in test [8] and 0.80 μmoles/hr/mg protein in test [9]. The “substrate specificity of purified SADH (in words)” value in [5] is “lower rate”. In [5], the “relative percent rate of oxidation” value was found to be 2%. Further, the “substrate specificity of purified yeast secondary alcohol dehydrogenase (in words)” value in test [6] (spectrophotometric) is reported as “catalyzed the oxidation”. The “Conversion Rate, secondary alcohol” value in [7] is reported as 0.60 μmoles/hr/mg Protein.
Take `CCCC(C)O` (stereo not shown) [2-Pentanol, 2-pentanol]: the “Conversion Rates, sec-alcohol” value in test [1] (cells grown on methanol) is 0.60 μmoles/hr/mg protein; in test [1] (resting cells grown on methane), 0.5 μmoles/hr/mg protein; in test [2] (cells grown on methanol), 3.5 μmoles/hr/mg protein; in test [2] (resting cells grown on methane), 2.5 μmoles/hr/mg protein; in test [3] (cells grown on methanol), 0.82 μmoles/hr/mg protein; in test [3] (resting cells grown on methane), 0.80 μmoles/hr/mg protein. Besides, the “Conversion Rates, sec-alcohol” value stood at 0.45 μmoles/hr/mg protein in test [4] (cells grown on methanol), 0.25 μmoles/hr/mg protein in test [4] (resting cells grown on methane), 0.05 μmoles/hr/mg protein in [8] and 2.1 μmoles/hr/mg protein in test [9]. Also, in test [5], the “substrate specificity of purified SADH (in words)” value is listed as “lower rate”. The “relative percent rate of oxidation” value in test [5] stood at 5%. In test [6] (spectrophotometric), the “substrate specificity of purified yeast secondary alcohol dehydrogenase (in words)” value is listed as “catalyzed the oxidation”. The “Conversion Rate, secondary alcohol” value in test [7] came out at 1.2 μmoles/hr/mg Protein.
As to `CC(C)O` [2-Propanol, 2-propanol], the “Conversion Rates, sec-alcohol” value in [1] (cells grown on methanol) is 0.52 μmoles/hr/mg protein; in test [1] (resting cells grown on methane), 0.15 μmoles/hr/mg protein; in test [2] (cells grown on methanol), 0.75 μmoles/hr/mg protein; in test [2] (resting cells grown on methane), 0.08 μmoles/hr/mg protein; in [3] (cells grown on methanol), 0.25 μmoles/hr/mg protein; in [3] (resting cells grown on methane), 0.32 μmoles/hr/mg protein. Also, the “Conversion Rates, sec-alcohol” value in test [4] (cells grown on methanol) is 0.35 μmoles/hr/mg protein; in test [4] (resting cells grown on methane) it was 0.40 μmoles/hr/mg protein; in [8], 7.4 μmoles/hr/mg protein; in test [9], 0.80 μmoles/hr/mg protein. Also, the “substrate specificity of purified SADH (in words)” value in test [5] is “highest”. In addition, the “relative percent rate of oxidation” value in test [5] stood at 85%. In test [6] (spectrophotometric), the “substrate specificity of purified yeast secondary alcohol dehydrogenase (in words)” value is “catalyzed the oxidation”. Also, the “Conversion Rate, secondary alcohol” value in [7] is 5.5 μmoles/hr/mg Protein.

The values are drawn from patent US4268630A, “Microbiological production of ketones from C3 -C6 alkanes” (priority 1979, dated 1981).
